Experimental data as given in patent publication US20130303377A1, “USE OF SINGLE AMINO ACIDS AT LOW CONCENTRATIONS FOR INFLUENCING THE LIFE PROCESSES OF CROPS” (GLOBACHEM, priority 2010, published 2013).

Experiments:
wheat seedlings = assay: Growth inhibition with wheat; assay type: in vivo; settings: for Growth increase (cm): one treatment; for Growth increase (cm) / % wrt control: after 10 days; for % wrt control: growth increase
Procedure: (§1) This experiment was performed in four repetitions on wheat seedlings. Per repetition six seedlings were sown in a jar and monitored. When the seedlings were about 15 cm high, they were treated once with the following treatments, and after 10 days the growth increase was measured. The dose is given in g/ha whereby the conversion from the concentration was done with a use of 300 l/ha.

barley seedlings = assay: Growth inhibition with barley; assay type: in vivo; settings: 250 g/ha, after 8 days
Procedure: as §1, with “on barley” for “on wheat”, “Per repetition,” for “Per repetition”, “after 8” for “after 10”, “done at” for “done with”, “300 I/ha.” for “300 l/ha.”

plants [1] = settings: 500 ppm of glutamic acid; EP 1124419; cited from earlier work
plants [2] = settings: only glutamic acid; WO 00/25582; cited from earlier work
plants [3] = assay: Strength of the response to one single amino acid as a function of dosage; assay type: in vivo; settings: compared to the intermediate range of 5-15 g/ha
Excerpt: The location of the peaks of the pattern, i.e. at which concentrations the strongest effects could be recorded, and the location of the valley between two peaks, i.e. the range wherein the response was again a little less, appeared however to depend on the choice of the amino acid and of the life process which one wishes to influence.

[4] = tested on: mature apple trees of the variety Jonagold (mutant King); assay: Improvement of the coloring with apple, Example 1 (glutamine sprayed before picking); assay type: in vivo; settings: for kg 1st picking: colored fruits; for Fruit weight: average over the total harvest
Procedure: This experiment was performed on mature apple trees of the variety Jonagold (mutant King). The sprayings were performed with an atomizer at 300 liter of water/ha. The spray liquid used contained in the first test 300 ppm wt of glutamine and in the second test with a multiple treatment each time 150 ppm wt glutamine. The spray liquid further contained surfactants and a UV filter.
apples of the trees in the test field were harvested in 3 times. Glutamine was used as active substance, in a first test 2 weeks before the expected first picking date, and in the second test first 2 weeks and then again 1 week before the expected harvest date. The dosages used are shown below. At harvest, the total yield, the kilos colored fruits which could be harvested in the first picking and the average fruit weight over the total harvest (in grams per apple fruit) were determined. The results are shown in Table 1, and compared with a control without treatment.

Jonagored = assay: Improvement of the coloring with apple, Example 4; assay type: in vivo; settings: glutamine 2.5 g/ha, 4 days before the pick
Excerpt: In this experiment, glutamine was applied 4 days before the pick on a plot of Jonagored, and in a concentration of 8.3 ppm wt in 300 l/ha, which is equivalent to a dose of 2.5 g/ha of glutamine. In table 4 below the % of first picking is shown.

[5] = tested on: mature apple trees of the variety Jonagold, Jonagored mutant; assay: Increase of both the yield and the coloring with apple, Example 3; assay type: in vivo
Procedure: This experiment was performed on mature apple trees of the variety Jonagold, Jonagored mutant. Unlike the two previous trials, the focus here is primarily on increasing the yield. To achieve this, the treatments have to be started much earlier in the season. The dose is hereby lower than in the two previous applications because the goal is here fruit set and growth inhibition, instead of coloring. One could suffice with two treatments, at the start of the growing season, but several applications over the entire growing season gives a more certain result. The applications in this test were started around the end of flowering and were repeated every 7 to 14 days, depending on the weather conditions. There were in total 7 treatments, more precisely on April 24, May 7, May 14, May 20, June 9, June 16 and June 24. The sprayings were performed with an atomiser.
Glutamine, each time at a concentration of 50 ppm wt in 300 liter water/ha, and thus a dose of 15 g/ha, was applied both separately and in combination with S-abscisic acid (ABA). In the combination test, ABA was administered at the first 2 sprayings of the season, and always at a concentration of 3.3 ppm in 300 l water/ha spraying liquid, which corresponds to a dosage of 1.0 g/ha of ABA. At the end of the season, the extension of the shoots was measured and the number of fruits per tree determined. Shortly after the end of the sprayings, on June 25, the average fruit diameter was also determined.

Jonagold = assay: Improvement of the coloring with apple, Example 2; assay type: in vivo
Procedure: In an experiment similar to Example 1, glutamine was used 2 times on Jonagold, the first time 14 days before the picking and then a few days before the picking. The dosage of the treatment was this time 2 times 15 g/ha (each time with a concentration of 50 ppm wt in an atomisation of each time 300 liter of water per hectare). The % first picking was determined and is shown in Table 2, in comparison with a control test without treatment.

[6] = glutamine 2 × 45 g/ha, 2 weeks and 1 week before expected harvest date
[7] = glutamine 90 g/ha once, 2 weeks before expected first picking

With CCOC(=O)C1CC(=O)C(=C(O)C2CC2)C(=O)C1 (stereo not drawn) [Trinexapac-ethyl, trinexapac-ethyl, reference compound] the “Growth increase (cm)” value (wheat seedlings; 250 g/ha) was 7.8 cm and the “% wrt control” value (wheat seedlings; 250 g/ha) was 72%.

With CC(C)(C)C(O)(CCc1ccc(Cl)cc1)Cn1cncn1 (stereo not drawn) [Tebuconazole, tebuconazole] the “Growth increase (cm)” value (barley seedlings; one treatment) was 3.2 cm and the “% wrt control” value (barley seedlings; growth increase) was 45%.

For N[C@@H](CCC(=O)O)C(=O)O [glutamic acid], the “Effect on productivity of plants” value (plants [1]) is listed as “only a small effect” and the “Yield of plants versus control test” value (plants [2]) is listed as “did not yield any significant improvement”.

With N[C@@H](Cc1c[nH]cn1)C(=O)O [Histidine, histidine] the “Growth increase (cm)” value (wheat seedlings; 2 g/ha) was 10.0 cm, the “Growth increase (cm)” value (wheat seedlings; 100 g/ha) was 10.2 cm and the “Strength of the growth inhibitory response” value (wheat seedlings; further experiments with only histidine, about 10 g/ha) was “less than in the tests with the lower (2 g/ha) and higher (100 g/ha) dosages”. For the same compound, the “% wrt control” value (wheat seedlings; 2 g/ha) was 92%, the “% wrt control” value (wheat seedlings; 100 g/ha) was 94% and the “Strength of the response as a function of dosage” value (plants [3]) was “higher response in the range of 0.5-5 g/ha and in a range of 15-250 g/ha”.

With NC(=O)CC[C@H](N)C(=O)O [Glutamine, glutamine] the “Difference of first picking versus control” value ([4]; dual treatment (2 × 45 g/ha)) was 3 kg, the “Difference of first picking versus control (% of total harvest)” value ([4]; dual treatment (2 × 45 g/ha)) was 10% and the “1st picking in % of the total harvest” value [4, 6] was 46%. For the same compound, the “kg (total harvest)” value [4, 6] was 39 kg, the “kg 1st picking” value [4, 6] was 18 kg and the “Fruit weight” value ([4]; glutamine 2 × 45 g/ha) was 257 g. The “1st picking in % of the total harvest” value [4, 7] was 41%, the “kg (total harvest)” value [4, 7] was 39 kg and the “kg 1st picking” value [4, 7] was 16 kg. For the same compound, the “Fruit weight” value ([4]; glutamine 90 g/ha once) was 248 g, the “Increase of first picking versus control” value ([4]; single treatment (90 g/ha)) was 1 kg and the “Increase of first picking versus control (% of total harvest)” value ([4]; single treatment (90 g/ha)) was 5%. The “% 1st picking” value (Jonagored) was 55.8%, the “Average Shoot length (cm)” value ([5]; end of season, glutamine 15 g/ha, 7 treatments) was 25.6 cm and the “Fruit diameter (mm) on June 25” value ([5]; glutamine 15 g/ha, 7 treatments) was 43.7 mm. For the same compound, the “Increase of fruits per tree versus control” value ([5]; glutamine alone, 15 g/ha, 7 treatments) was 14 fruits per tree, the Increased yield ([5]; glutamine alone, extrapolated at 1714 trees/ha and five apples per kilo) was roughly 5000 kg/ha and the Number of fruits ([5]; per tree, glutamine 15 g/ha, 7 treatments from end of flowering) was 127. For the same compound, the “Increase in the first picking, absolute percentage with respect to weight of total harvest” value (Jonagold; double treatment of glutamine, versus control) was “around 10%”, the “Increase of the first-picking portion of the harvest” value (Jonagold; extrapolated at a Jonagold yield of 60 tons/ha) was “at least 6 tons/ha” and the “% 1st picking” value (Jonagold; glutamine 2 × 15 g/ha, 14 days and a few days before the picking) was 40%.
